Legend:
[1] = for molar entropy: 101.33 kPa, Small (less than 1 g) adiabatic calorimetry; for Triple point temperature: Adiabatic calorimetry
[2] = molar heat capacity at constant pressure; settings: 101.33 kPa, Small (less than 1 g) adiabatic calorimetry

CCCCn1cc[n+](C)c1.O=[N+]([O-])[O-] [1-butyl-3-methylimidazolium nitrate]
Settings	molar entropy, [1] [J/K/mol]	molar heat capacity at constant pressure, [2] [J/K/mol]
5 K, Crystal 4	0.18	0.536
10 K, Crystal 4	1.52	4.46
15 K, Crystal 4	4.64	11.93
20 K, Crystal 4	9.379	21.74
25 K, Crystal 4	15.39	32.7
30 K, Crystal 4	22.34	43.8
35 K, Crystal 4	29.9	54.44
40 K, Crystal 4	37.83	64.5
45 K, Crystal 4	45.98	73.88
50 K, Crystal 4	54.22	82.59
55 K, Crystal 4	62.47	90.63
60 K, Crystal 4	70.67	97.94
70 K, Crystal 4	86.8	111.1
80 K, Crystal 4	102.4	122.4
90 K, Crystal 4	117.4	132.2
100 K, Crystal 4	131.8	141
110 K, Crystal 4	145.6	149.2
120 K, Crystal 4	158.9	156.9
130 K, Crystal 4	171.8	164.4
140 K, Crystal 4	184.2	171.8
150 K, Crystal 4	196.3	179.1
160 K, Crystal 4	208.1	186.5
170 K, Crystal 4	219.7	194.1
180 K, Crystal 4	231	202
190 K, Crystal 4	242.1	210.1
200 K, Crystal 4	253.1	218.6
210 K, Crystal 4	264	227.3
220 K, Crystal 4	274.7	236.2
230 K, Crystal 4	285.4	245.1
240 K, Crystal 4	296.1	254
250 K, Crystal 4	306.6	262.9
260 K, Crystal 4	317.1	271.8
270 K, Crystal 4	327.5	280.7
278.2 K, Crystal 3	343.5	288
278.2 K, Crystal 4	336	288
280 K, Crystal 3	345.3	289.6
285 K, Crystal 3	350.5	294.1
288.1 K, Crystal 2	354.9	296.8
288.1 K, Crystal 3	353.7	296.8
290 K, Crystal 2	356.9	298.6
292.2 K, Crystal 1	359.7	300.5
292.2 K, Crystal 2	359.2	300.5
295 K, Crystal 1	362.6	303
298.15 K, Crystal 1	365.8	305.8
300 K, Crystal 1	367.7	307.5
309.16 K, Crystal 1	377.1	315.6
309.16 K, Liquid	435.3	357.7
310 K, Liquid	436.3	358
320 K, Liquid	447.7	361.8
330 K, Liquid	458.9	365.8
340 K, Liquid	469.9	369.8
350 K, Liquid	480.7	374.1
360 K, Liquid	491.2	378.5
370 K, Liquid	501.6	383

[1]
Settings	Triple point temperature [K]
Crystal 1	309.16
Crystal 2	292.2
Crystal 3	288.1
Crystal 4	278.8
